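How tested: cells in 96-well plates exposed to compound for 48 hours at five concentrations. GI50 marks 50% less growth. TGI: total growth inhibition.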
Legend:
Assay in all cases: growth of human tumour cells (NCI), 48 h
[1] = system: NCI-H460 lung
[2] = system: CAKI-1 renal
[3] = system: EKVX NSCLC
[4] = system: MDA-MB-435
[5] = system: SW-620 colon
[6] = system: KM12 colon
[7] = system: SF-295 CNS
[8] = system: LOX IMVI melanoma
[9] = system: MCF7 breast
[10] = system: COLO 205 colon

| SMILES | GI50 [1] [µM] | TGI [1] [µM] | GI50 [2] [µM] | TGI [2] [µM] | GI50 [3] [µM] | TGI [3] [µM] | GI50 [4] [µM] | TGI [4] [µM] | GI50 [5] [µM] | TGI [5] [µM] | GI50 [6] [µM] | TGI [6] [µM] | GI50 [7] [µM] | TGI [7] [µM] | GI50 [8] [µM] | TGI [8] [µM] | GI50 [9] [µM] | TGI [9] [µM] | GI50 [10] [µM] | TGI [10] [µM] |
| --- | --- | --- | --- | --- | --- | --- | --- | --- | --- | --- | --- | --- | --- | --- | --- | --- | --- | --- | --- | --- |
| CCS(=O)(=O)c1ccc(OC)c(Nc2ncc(-c3cccc(-c4ccccc4F)c3)o2)c1 | > 25 | > 25 | 10.8 | > 25 | 7.89 | > 25 | > 25 | > 25 | > 25 | > 25 | 0.833 | > 25 | 10.1 | > 25 | 15.1 | > 25 | > 21 | > 25 | > 20.1 | > 25 |
| Cc1oncc1C(=O)Nc1ccc(C(F)(F)F)cc1 | 24.8 | > 100 | 33.3 | > 100 | 18.7 | > 100 | 46.9 | > 100 | 92.5 | > 100 | 35.8 | > 100 | 19.5 | > 100 | 19.1 | > 100 | > 100 | > 100 | > 100 | > 100 |
| C[C@@]12CCC[C@@](C)(C(=O)O)C1CC[C@]13C=C(CO)[C@](O)(CCC12)C3 (some centres not stated) | > 100 | > 100 | > 100 | > 100 | > 100 | > 100 | > 100 | > 100 | > 100 | > 100 | > 100 | > 100 | > 100 | > 100 | > 100 | > 100 | > 100 | > 100 | > 100 | > 100 |
| CNC(=O)c1cc(Oc2ccc3nc(NC(=O)c4cc(C(F)(F)F)cc(C(F)(F)F)c4)sc3c2)ccn1 | 3.83 | 14.6 | 2.75 | 10.7 | 3.43 | 23.3 | 3.28 | 20.4 | 7.56 | 63.8 | 2.7 | 11 | 2.56 | 10.5 | 3.39 | 15.1 | 3.37 | 18 | 2.82 | 8.21 |
| COc1cc2c3c(n(CCCN=[N+]=[N-])c(=O)c2cc1OC)-c1ccc(N)cc1C3=O | 0.0265 | 0.139 | 0.132 | 2.8 | 1.09 | 8.55 | 0.479 | 1.65 | 0.203 | 3.69 | 0.334 | 1.16 | 0.0835 | 1.51 | 0.0923 | 0.466 | 0.143 | – | 0.4 | 1.23 |
| S=c1cn[nH]c2ccc(Br)cc12 | – | > 100 | – | > 100 | – | 75.3 | – | > 100 | – | > 100 | – | > 100 | – | > 100 | – | > 100 | – | > 100 | – | > 100 |
| CC(/C=C/C=C/C=C/C=C/C=C/C(O)=C1/C(=O)C(CCC(=O)O)N(C)C1=O)=C\C(C)C(OC1CC(O)C(O)C(C)O1)C(C)C (configuration not stated) | – | 10.1 | – | 12.6 | – | 12.4 | – | 7.93 | – | 14.6 | – | 3.73 | – | 14.8 | – | 11.5 | – | 33.6 | – | 4.48 |
| O=c1oc2c(Br)c(O)c(Br)cc2c2ccccc12 | – | 57 | – | 31.1 | – | 67.4 | – | > 100 | – | > 100 | – | – | – | > 100 | – | 68.9 | – | 48.7 | – | > 100 |
| Nc1ccn(C2OC(CO[P+](=O)OC3C(CO[P+](=O)OC4C(CO[P+](=O)OC5C(CO[P+](=O)OC6C(CO[P+](=O)OC7C(CO[P+](=O)OC8C(CO[P+](=O)OC9C(CO[P+](=O)OC%10C(CO[P+](=O)OC%11C(CO)OC(n%12ccc(N)nc%12=O)C%11(F)F)OC(n%11ccc(N)nc%11=O)C%10(F)F)OC(n%10ccc(N)nc%10=O)C9(F)F)OC(n9ccc(N)nc9=O)C8(F)F)OC(n8ccc(N)nc8=O)C7(F)F)OC(n7ccc(N)nc7=O)C6(F)F)OC(n6ccc(N)nc6=O)C5(F)F)OC(n5ccc(N)nc5=O)C4(F)F)OC(n4ccc(N)nc4=O)C3(F)F)C(O)C2(F)F)c(=O)n1 (configuration not stated) | – | – | – | – | > 100 | > 100 | – | > 100 | 0.168 | > 100 | 2.03 | > 100 | – | > 100 | – | > 100 | – | > 100 | 0.369 | > 100 |
| NC(=O)c1ncn(C2OC(CO)C(O)C2O)n1 (configuration not stated) | 64.2 | > 100 | 57.2 | > 100 | 70.2 | > 100 | > 100 | > 100 | 22.8 | > 100 | > 100 | > 100 | – | – | 53.6 | > 100 | 36.4 | > 100 | 55.2 | > 100 |
| O=[n+]1cnn([O-])c2ccccc21 | – | – | – | 55.1 | – | 91.7 | – | > 100 | – | 46.1 | – | 40.4 | – | > 100 | – | > 100 | – | 44.4 | – | 40.7 |
